Test: xn = mol fraction of the nth substance listed
Conditions: 100 kPa, Liquid; for viscosity: Falling or rolling sphere viscometry; for mass density: Vibrating tube method

CC[N+]1(C)CCCC1.O=C([O-])CO [1-ethyl-1-methylpyrrolidinium glycolate] + O
Conditions	mass density [kg/m3]	viscosity [mPa·s]
298.15 K, x1 = 0.0541	1057.7	–
298.15 K, x1 = 0.1293	1100.6	11.8
298.15 K, x1 = 0.2024	1118.3	25.2
298.15 K, x1 = 0.2905	1127.2	46.2
298.15 K, x1 = 0.3464	1130	61.1
298.15 K, x1 = 0.4258	1132.3	84
298.15 K, x1 = 0.5357	1133.9	119
298.15 K, x1 = 0.6086	1134.3	145
298.15 K, x1 = 0.729	1134.7	195
298.15 K, x1 = 0.825	1134.5	241
298.15 K, x1 = 0.8839	1134.3	271
303.15 K, x1 = 0.0541	1055.1	–
303.15 K, x1 = 0.1293	1097.2	9.63
303.15 K, x1 = 0.2024	1114.7	19.9
303.15 K, x1 = 0.2905	1123.6	37.2
303.15 K, x1 = 0.3464	1126.5	48.2
303.15 K, x1 = 0.4258	1128.8	65
303.15 K, x1 = 0.5357	1130.4	90.6
303.15 K, x1 = 0.6086	1130.9	110
303.15 K, x1 = 0.729	1131.3	146
303.15 K, x1 = 0.825	1131.1	179
303.15 K, x1 = 0.8839	1130.9	200
308.15 K, x1 = 0.0541	1052.3	–
308.15 K, x1 = 0.1293	1093.7	8
308.15 K, x1 = 0.2024	1111.2	16.5
308.15 K, x1 = 0.2905	1120.1	30
308.15 K, x1 = 0.3464	1123	38.3
308.15 K, x1 = 0.4258	1125.4	51.4
308.15 K, x1 = 0.5357	1127	70.8
308.15 K, x1 = 0.6086	1127.5	85.4
308.15 K, x1 = 0.729	1127.9	112
308.15 K, x1 = 0.825	1127.7	137
308.15 K, x1 = 0.8839	1127.6	152
313.15 K, x1 = 0.0541	1049.5	–
313.15 K, x1 = 0.1293	1090.3	6.75
313.15 K, x1 = 0.2024	1107.6	13.5
313.15 K, x1 = 0.2905	1116.6	23.5
313.15 K, x1 = 0.3464	1119.5	30.5
313.15 K, x1 = 0.4258	1121.9	41.3
313.15 K, x1 = 0.5357	1123.6	56.4
313.15 K, x1 = 0.6086	1124.1	67.6
313.15 K, x1 = 0.729	1124.6	87.7
313.15 K, x1 = 0.825	1124.4	106
313.15 K, x1 = 0.8839	1124.3	119
318.15 K, x1 = 0.0541	1046.6	–
318.15 K, x1 = 0.1293	1086.8	5.69
318.15 K, x1 = 0.2024	1104	11.6
318.15 K, x1 = 0.2905	1113.1	20
318.15 K, x1 = 0.3464	1116	25.4
318.15 K, x1 = 0.4258	1118.5	33.8
318.15 K, x1 = 0.5357	1120.3	45.7
318.15 K, x1 = 0.6086	1120.8	54.2
318.15 K, x1 = 0.729	1121.3	70
318.15 K, x1 = 0.825	1121.1	83.6
318.15 K, x1 = 0.8839	1121	92.8
323.15 K, x1 = 0.0541	1043.7	–
323.15 K, x1 = 0.1293	1083.3	4.85
323.15 K, x1 = 0.2024	1100.4	9.82
323.15 K, x1 = 0.2905	1109.6	16.4
323.15 K, x1 = 0.3464	1112.6	20.9
323.15 K, x1 = 0.4258	1115.2	27.7
323.15 K, x1 = 0.5357	1116.9	37.5
323.15 K, x1 = 0.6086	1117.5	44.5
323.15 K, x1 = 0.729	1118	56.6
323.15 K, x1 = 0.825	1117.9	67
323.15 K, x1 = 0.8839	1117.7	74.6
328.15 K, x1 = 0.0541	1040.6	–
328.15 K, x1 = 0.1293	1079.8	4.34
328.15 K, x1 = 0.2024	1096.8	8.55
328.15 K, x1 = 0.2905	1106.1	13.9
328.15 K, x1 = 0.3464	1109.2	17.8
328.15 K, x1 = 0.4258	1111.8	23.3
328.15 K, x1 = 0.5357	1113.6	31.4
328.15 K, x1 = 0.6086	1114.2	37.2
328.15 K, x1 = 0.729	1114.8	46.8
328.15 K, x1 = 0.825	1114.6	55.7
328.15 K, x1 = 0.8839	1114.5	61.9
333.15 K, x1 = 0.0541	1037.5	–
333.15 K, x1 = 0.1293	1076.2	4.12
333.15 K, x1 = 0.2024	1093.3	7.54
333.15 K, x1 = 0.2905	1102.6	12.5
333.15 K, x1 = 0.3464	1105.7	15.5
333.15 K, x1 = 0.4258	1108.5	20
333.15 K, x1 = 0.5357	1110.4	26.5
333.15 K, x1 = 0.6086	1111	31.1
333.15 K, x1 = 0.729	1111.5	38.8
333.15 K, x1 = 0.825	1111.4	45.5
333.15 K, x1 = 0.8839	1111.3	49.9
338.15 K, x1 = 0.0541	1034.3	–
338.15 K, x1 = 0.1293	1072.7	3.87
338.15 K, x1 = 0.2024	1089.7	6.81
338.15 K, x1 = 0.2905	1099.2	10.6
338.15 K, x1 = 0.3464	1102.4	13.2
338.15 K, x1 = 0.4258	1105.1	16.8
338.15 K, x1 = 0.5357	1107.1	22.4
338.15 K, x1 = 0.6086	1107.7	26.1
338.15 K, x1 = 0.729	1108.3	32.6
338.15 K, x1 = 0.825	1108.3	38.1
338.15 K, x1 = 0.8839	1108.2	41.6
343.15 K, x1 = 0.0541	1031.1	–
343.15 K, x1 = 0.1293	1069.1	3.58
343.15 K, x1 = 0.2024	1086.1	5.96
343.15 K, x1 = 0.2905	1095.7	9.03
343.15 K, x1 = 0.3464	1099	11.2
343.15 K, x1 = 0.4258	1101.8	14.5
343.15 K, x1 = 0.5357	1103.9	19.2
343.15 K, x1 = 0.6086	1104.6	22.4
343.15 K, x1 = 0.729	1105.2	27.9
343.15 K, x1 = 0.825	1105.1	32.4
343.15 K, x1 = 0.8839	1105.1	35.3
348.15 K, x1 = 0.0541	1027.6	–
348.15 K, x1 = 0.1293	1065.5	3.55
348.15 K, x1 = 0.2024	1082.6	5.64
348.15 K, x1 = 0.2905	1092.9	7.83
348.15 K, x1 = 0.3464	1095.6	9.71
348.15 K, x1 = 0.4258	1098.6	12.5
348.15 K, x1 = 0.5357	1100.7	16.6
348.15 K, x1 = 0.6086	1101.4	19.3
348.15 K, x1 = 0.729	1102.1	24
348.15 K, x1 = 0.825	1102	27.7
348.15 K, x1 = 0.8839	1102	30.1
